Reference: the supplement of paper PMC10307832

Experiments:
Assay in all cases: relative viability (nuclei count vs DMSO), 5 days (fraction); higher = more cells survive
CAL-12T = system: CAL-12T
Outline: (§1)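 Each reported value is a median over duplicate plates. It expresses relative viability: treated-well nuclei count divided by vehicle-well nuclei count. Lung cancer cell lines in 1536-well plates were dosed by pin tool a day after seeding, alone with one drug or with a fixed anchor-drug dose plus five library-drug doses (not always all listed) in √10 steps, and nuclei were counted after 5 days.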

NCI-H1666 = system: NCI-H1666
Outline: as §1

NCI-H1975 = system: NCI-H1975
Outline: as §1

NCI-H1755 = system: NCI-H1755
Outline: as §1

NCI-H441 = system: NCI-H441
Outline: as §1

ChaGo-K-1 = system: ChaGo-K-1
Outline: as §1

HCC-15 = system: HCC-15
Outline: as §1

COR-L 105 = system: COR-L 105
Outline: as §1

NCI-H2085 = system: NCI-H2085
Outline: as §1

NCI-H2126 = system: NCI-H2126
Outline: as §1

NCI-H3122 = system: NCI-H3122
Outline: as §1

NCI-H322M = system: NCI-H322M
Outline: as §1

HCC-78 = system: HCC-78
Outline: as §1

NCI-H1993 = system: NCI-H1993
Outline: as §1

EPLC-272H = system: EPLC-272H
Outline: as §1

HOP-62 = system: HOP-62
Outline: as §1

LXF-289 = system: LXF-289
Outline: as §1

NCI-H1915 = system: NCI-H1915
Outline: as §1

UMC-11 = system: UMC-11
Outline: as §1

EMC-BAC-2 = system: EMC-BAC-2
Outline: as §1

NCI-H2023 = system: NCI-H2023
Outline: as §1

Compound: Clc1ccc(Nc2nnc(Cc3ccncc3)c3ccccc23)cc1 [Vatalanib] + CC1(C)CCC(c2ccc(Cl)cc2)=C(CN2CCN(c3ccc(C(=O)NS(=O)(=O)c4ccc(N[C@H](CCN5CCOCC5)CSc5ccccc5)c(S(=O)(=O)C(F)(F)F)c4)cc3)CC2)C1 [Navitoclax] (partner 0.5 µM)
- relative viability (CAL-12T; first compound 0.04 µM): 1.17
- relative viability (CAL-12T; first compound 0.1265 µM): 1.2
- relative viability (CAL-12T; first compound 0.4 µM): 1.28
- relative viability (CAL-12T; first compound 1.265 µM): 1.15
- relative viability (CAL-12T; first compound 4 µM): 1.31
- relative viability (NCI-H1666; first compound 0.04 µM): 0.958
- relative viability (NCI-H1666; first compound 0.1265 µM): 0.93
- relative viability (NCI-H1666; first compound 0.4 µM): 0.829
- relative viability (NCI-H1666; first compound 1.265 µM): 0.963
- relative viability (NCI-H1666; first compound 4 µM): 0.845
- relative viability (NCI-H1975; first compound 0.04 µM): 1.09
- relative viability (NCI-H1975; first compound 0.1265 µM): 1
- relative viability (NCI-H1975; first compound 0.4 µM): 1.17
- relative viability (NCI-H1975; first compound 1.265 µM): 0.945
- relative viability (NCI-H1975; first compound 4 µM): 0.815
- relative viability (NCI-H1755; first compound 0.04 µM): 1.06
- relative viability (NCI-H1755; first compound 0.1265 µM): 0.972
- relative viability (NCI-H1755; first compound 0.4 µM): 1.03
- relative viability (NCI-H1755; first compound 1.265 µM): 0.821
- relative viability (NCI-H1755; first compound 4 µM): 0.993
- relative viability (NCI-H441; first compound 0.04 µM): 0.886
- relative viability (NCI-H441; first compound 0.1265 µM): 0.685
- relative viability (NCI-H441; first compound 0.4 µM): 0.469
- relative viability (NCI-H441; first compound 1.265 µM): 0.755
- relative viability (NCI-H441; first compound 4 µM): 0.54
- relative viability (ChaGo-K-1; first compound 0.04 µM): 0.565
- relative viability (ChaGo-K-1; first compound 0.1265 µM): 0.94
- relative viability (ChaGo-K-1; first compound 1.265 µM): 0.934
- relative viability (ChaGo-K-1; first compound 4 µM): 1.16
- relative viability (HCC-15; first compound 0.04 µM): 0.719
- relative viability (HCC-15; first compound 0.1265 µM): 0.713
- relative viability (HCC-15; first compound 0.4 µM): 0.767
- relative viability (HCC-15; first compound 1.265 µM): 0.737
- relative viability (HCC-15; first compound 4 µM): 0.654
- relative viability (COR-L 105; first compound 0.04 µM): 1.47
- relative viability (COR-L 105; first compound 0.1265 µM): 0.928
- relative viability (COR-L 105; first compound 0.4 µM): 0.692
- relative viability (COR-L 105; first compound 1.265 µM): 0.766
- relative viability (COR-L 105; first compound 4 µM): 0.715
- relative viability (NCI-H2085; first compound 0.04 µM): 1.12
- relative viability (NCI-H2085; first compound 0.1265 µM): 1.25
- relative viability (NCI-H2085; first compound 0.4 µM): 1.29
- relative viability (NCI-H2085; first compound 1.265 µM): 1.05
- relative viability (NCI-H2085; first compound 4 µM): 1.01
- relative viability (NCI-H2126; first compound 0.04 µM): 0.834
- relative viability (NCI-H2126; first compound 0.1265 µM): 0.914
- relative viability (NCI-H2126; first compound 0.4 µM): 0.851
- relative viability (NCI-H2126; first compound 1.265 µM): 0.801
- relative viability (NCI-H2126; first compound 4 µM): 0.76
- relative viability (NCI-H3122; first compound 0.04 µM): 1.03
- relative viability (NCI-H3122; first compound 0.1265 µM): 1.02
- relative viability (NCI-H3122; first compound 0.4 µM): 1
- relative viability (NCI-H3122; first compound 1.265 µM): 1.06
- relative viability (NCI-H3122; first compound 4 µM): 1.02
- relative viability (NCI-H322M; first compound 0.04 µM): 1.22
- relative viability (NCI-H322M; first compound 0.1265 µM): 1.21
- relative viability (NCI-H322M; first compound 0.4 µM): 1.27
- relative viability (NCI-H322M; first compound 1.265 µM): 1.14
- relative viability (NCI-H322M; first compound 4 µM): 1.09
- relative viability (HCC-78; first compound 0.04 µM): 0.714
- relative viability (HCC-78; first compound 0.1265 µM): 0.76
- relative viability (HCC-78; first compound 0.4 µM): 0.888
- relative viability (HCC-78; first compound 4 µM): 0.72
- relative viability (NCI-H1993; first compound 0.04 µM): 0.894
- relative viability (NCI-H1993; first compound 0.1265 µM): 0.935
- relative viability (NCI-H1993; first compound 0.4 µM): 0.826
- relative viability (NCI-H1993; first compound 1.265 µM): 0.789
- relative viability (NCI-H1993; first compound 4 µM): 0.63
- relative viability (EPLC-272H; first compound 0.04 µM): 1.08
- relative viability (EPLC-272H; first compound 0.1265 µM): 1.04
- relative viability (EPLC-272H; first compound 0.4 µM): 1.05
- relative viability (EPLC-272H; first compound 1.265 µM): 1.05
- relative viability (EPLC-272H; first compound 4 µM): 1.13
- relative viability (HOP-62; first compound 0.04 µM): 1.05
- relative viability (HOP-62; first compound 0.1265 µM): 0.958
- relative viability (HOP-62; first compound 0.4 µM): 1.07
- relative viability (HOP-62; first compound 1.265 µM): 0.949
- relative viability (HOP-62; first compound 4 µM): 1.07
- relative viability (LXF-289; first compound 0.04 µM): 0.971
- relative viability (LXF-289; first compound 0.1265 µM): 0.901
- relative viability (LXF-289; first compound 0.4 µM): 0.989
- relative viability (LXF-289; first compound 1.265 µM): 0.852
- relative viability (LXF-289; first compound 4 µM): 0.899
- relative viability (NCI-H1915; first compound 0.04 µM): 0.805
- relative viability (NCI-H1915; first compound 0.1265 µM): 0.796
- relative viability (NCI-H1915; first compound 0.4 µM): 0.771
- relative viability (NCI-H1915; first compound 1.265 µM): 0.794
- relative viability (NCI-H1915; first compound 4 µM): 0.779
- relative viability (UMC-11; first compound 0.04 µM): 0.274
- relative viability (UMC-11; first compound 0.1265 µM): 0.367
- relative viability (UMC-11; first compound 0.4 µM): 0.303
- relative viability (UMC-11; first compound 1.265 µM): 0.29
- relative viability (UMC-11; first compound 4 µM): 0.322
- relative viability (EMC-BAC-2; first compound 0.04 µM): 1.18
- relative viability (EMC-BAC-2; first compound 0.1265 µM): 1.12
- relative viability (EMC-BAC-2; first compound 0.4 µM): 1.23
- relative viability (EMC-BAC-2; first compound 1.265 µM): 1.15
- relative viability (EMC-BAC-2; first compound 4 µM): 1.14
- relative viability (NCI-H2023; first compound 0.04 µM): 1
- relative viability (NCI-H2023; first compound 0.1265 µM): 1.02
- relative viability (NCI-H2023; first compound 0.4 µM): 1.08
- relative viability (NCI-H2023; first compound 1.265 µM): 0.892
- relative viability (NCI-H2023; first compound 4 µM): 0.982
